Blank lines part the entries; values can stand above or below the substance they belong to. Ends that are not written are not given here.
How the values were obtained:
SGBS adipocytes = test: quantitative RT-PCR of cholesterol biosynthesis genes in SGBS adipocytes; format: cell-based, human; details: 18 h; for expression level of HMG-CoA synthase 1 (direction of regulation) / expression level of mevalonate (diphospho) decarboxylase (direction of regulation): quantitative RT-PCR, dose dependent, SGBS adipocytes, FIG. 2
Method: (§1) A human preadipocyte cell strain derived from subcutaneous adipose tissue of an infant with Simpson-Golabi-Behmel syndrome (SGBS) was plated out in 6 well plates and grown to confluence in DMEM/F12 medium (Gibco) containing 1% biotin, 1% panthothenic acid, 1% penicillin (10000 U)/streptomycin (10000 U), and 10% Fetal bovine serum (Gibco-Invitrogen, Carlsbad Calif. (USA)—“Gibco”). Differentiation of SGBS preadipocytes into adipocytes was induced by adding DMEM/F12 medium (Gibco) containing 1% biotin, 1% panthothenic acid, 1% penicillin (10,000 U)/streptomycin (10,000 U), 100 nM cortisol, […] triiodothyronine, 20 nM insulin, 250 nM dexamethasone (first 6 days), 500 μM IBMX (first 6 days), 2 μM rosiglitazone (first 3 days) and letting cells differentiate for 14 days.
(§2) Before stimulation with insulin and IRBP S597 the differentiated adipocytes were cultured in DMEM/F12 medium (Gibco) containing 1% biotin, 1% panthothenic acid, 1% penicillin (10,000 U)/streptomycin (10,000 U), 100 nM cortisol, and […] triiodothyronine for 2 days. Insulin and S597 (1, 3, 10, 30, 100 nM) were separately added to cells in DMEM/F12 medium (Gibco) containing 1% biotin, 1% panthothenic acid, 1% penicillin (10,000 U)/streptomycin (10,000 U), 100 nM cortisol, 200 pM triiodothyronine, and 0.1% BSA. Following stimulation for 18 h (18 hours), the cells were washed twice in PBS and 1.3 ml SV RNA-lysis buffer (Promega, Madison, Wis.) was added to each well.
(§3) Total RNA was isolated and DNase treated using SV96 total RNA isolation system (Promega, Madison, Wis.) following manufacturer's instructions.
(§4) cDNA was prepared from 100 ng of total RNA from each of the treatments (n=3) using random primers and TaqMan® Reverse (Applied Biosystems, Foster City, Calif. (USA)).
(§5) Transcription reagents were used/applied according to the manufacturer's instructions. Quantitative PCR was performed on each of the cDNA samples (10-fold dilutions of cDNA) using TaqMan® PCR core reagents (Applied Biosystems) on an ABI PRISM® 7000 Sequence Detection System (Applied Biosystems). Primers and FAM-labeled-probes for human and rat HMG-CoA reductase (HMGCR), mevalonate (diphospho) decarboxylase (MVD), HMG-CoA synthase 1 (HMGCS1), 18S rRNA, rat fatty acid synthase (FAS), and rat glucose-6-phosphate catalytic subunit (G6PC) were ordered as Assays-on-Demand (Applied Biosystems).
(§6) Probe sequences for these assays were as follows: HMGCR (human AC-[…] (assay Hs00168352_m1) (SEQ ID NO: 34), rat GCAC-[…] (assay Rn00565598_m1) (SEQ ID NO: 35)), MVD (human […] (assay Hs00159403_m1) (SEQ ID NO: 36), rat […] (assay Rn00579216_m1) (SEQ ID NO: 37)), HMGCS1 (human […] (assay Hs00266810_m1) (SEQ ID NO: 38), rat […] (assay Rn00568579_m1) (SEQ ID NO: 39)), 18S rRNA ([…]; assay HS99999901_s1) (SEQ ID NO: 40), FAS (rat […] (assay Rn00569117_m1) (SEQ ID NO: 41)), and G6PC (rat […] (assay Rn00565347_m1) (SEQ ID NO: 42)). Data were analyzed using ABI Prism 7000 SDS software (version 1.0; Applied Biosystems), and expression levels for HMGCR, MVD, HMGCS1, FAS, and were normalized to the 18S rRNA levels.

human SGBS adipocytes = test: cDNA microarray analysis of total RNA from SGBS adipocytes treated with S597 or human insulin; format: cell-based; details: 30 nM, 18 hours, vs vehicle
Method: To compare the transcriptional effects of human insulin (HI) and an exemplary IRBP, IRBP S597, cDNA microarray analyses were performed on total RNA from human SGBS adipocytes treated with S597 (30 nM) or human insulin (30 nM) for 18 hours. The microarray hybridizations were carried out as dual color (Cy3/Cy5) hybridizations comparing vehicle treatments to insulin or S597 treatments. Three individual RNA samples from vehicle, S597, and insulin treated cells were compared, and all hybridizations were repeated with reversed dye combination (e.g. vehicle (Cy3) vs. S597 (Cy5) repeated as vehicle (Cy5) vs. S597 (Cy3)). The specific steps employed in this experimental analysis of the effects of HI versus IRBP S597 are described in the following paragraphs.
as §1, §2, §3
Incyte Easy-To-Spot™ PCR-products (ETS1220 comprising ˜9000 human clones) (Amersham Biosciences) dissolved in 50% DMSO were spotted on to Corning Ultra Gaps slides (Corning Inc., Corning, N.Y.) at 55% relative humidity using the Molecular Dynamics Gen. III microarray spotter (Amersham Biosciences, Buckinghamshire, UK). All slides were baked at 80° C. for 4 h. Approximately 250 ng of total RNA from cells treated with vehicle, human insulin (30 nM) and S597 (30 nM) were used for synthesis of complementary RNA (amplified RNA (aRNA)) using Amino-allyl MessageAmp™ aRNA kit (Ambion, Austin, Tex.). Amino-allyl cDNA was synthesized from 1.5 μg of each RNA-amplification. The aRNA was incubated with random primer at 70° C. for 10 min. and subsequently chilled on ice for 30 sec. The primer annealed RNA was incubated with reaction mixture (1× Superscript II buffer (Life Technologies, Taastrup, Denmark), 10 mM DTT, 200 μM dGAT(−TP) 100 μM dCTP, 100 μM Cy-3/Cy-5-dCTP (Amersham Biosciences), and 200 units of Superscript II reverse transcriptase (Life Technologies, Taastrup, Denmark) at 42° C. for 2 h in a final volume of 20 μl. The RNA template was removed by alkaline denaturation (incubation with 2 μl 2.5 M NaOH at 37° C. for 15 min.). Amino-allyl labeled probes were purified using a Qiagen PCR purification kit (Qiagen). The amino-allyl cDNA was resuspended in 0.1 M NaHCO3 pH 9.0 and coupled to Cy3/Cy5 NHS-ester (Amersham Biosciences) for 1 h at RT in the dark. Unreacted ester groups were quenched by addition of hydroxylamine. Cy3- and Cy5-labeled cDNA was purified using Qiagen PCR purification kit (Qiagen). […]

primary rat hepatocytes = test: quantitative RT-PCR of mRNA expression in primary rat hepatocytes; format: cell-based; details: 18 h; for effect on HMGCR mRNA level / effect on HMGCS1 mRNA level / effect on MVD mRNA level: 5 doses (0.1, 0.3, 1, 10, 100 nM), FIG. 3; for mRNA expression of fatty acid synthase (direction of regulation) / mRNA expression of glucose-6-phosphate catalytic subunit (direction of regulation): FIG. 4
Method: Male Wistar rats (˜200 g) were anaesthetized with a freshly prepared mixture (1:1) of Hyp-norn (0.05 mg/ml fentalyl/2.5 mg/ml fluabizone) and Dormicum (1.25 mg/ml midazolam) administered subcutaneously (1 ml/kg). Hepatocytes were isolated from rats fed ad libitum by a two-step perfusion technique essentially as described by Seglen, Biochem. J. (1999) 342 (545-550). Cell viability, assessed by Trypan Blue exclusion, was consistently greater than 80%. Cells were plated on to collagen-coated six-well plates in basal medium (Medium 199, 5.5 mM glucose supplemented 100 nM decadron, 1% penicillin (10,000 U)/streptomycin (10,000 U), and 1 nM insulin) with 4% fetal calf serum at a cell density of 1.2*10^6 cells/well. The medium was replaced 1 h after initial plating in order to remove dead cells. […] Following stimulation for 18 h, the cells were washed twice in PBS and 1.3 ml SV RNA-lysis buffer (Promega, Madison, Wis.) were added to each well.
as §3, §4, §5, §6

[1] = quantitative RT-PCR, 1, 3, 10, 30, 100 nM, normalized to 18S, FIG. 1

Substance: Ac-SLEEEWAQIECEVYGRGCPSESFYDWFERQL (cysteine pairing not given here) [S597]
- dose dependant downregulation of HMG-CoA reductase mRNA (SGBS adipocytes; [1]): ~2 fold down
- expression level of HMG-CoA synthase 1 (direction of regulation) (SGBS adipocytes): downregulated
- expression level of mevalonate (diphospho) decarboxylase (direction of regulation) (SGBS adipocytes): downregulated
- HMG-CoA reductase (HMGCR) gene downregulation (human SGBS adipocytes): 2.1 fold
- HMG-CoA synthase 1 (HMGCS1) gene downregulation (human SGBS adipocytes): 1.4 fold
- mevalonate (diphospho) decarboxylase (MVD) gene downregulation (human SGBS adipocytes): 2.5 fold
- effect on HMGCR mRNA level (primary rat hepatocytes): no significant changes
- effect on HMGCS1 mRNA level (primary rat hepatocytes): no significant changes
- effect on MVD mRNA level (primary rat hepatocytes): no significant changes
- mRNA expression of fatty acid synthase (direction of regulation) (primary rat hepatocytes): upregulation
- mRNA expression of glucose-6-phosphate catalytic subunit (direction of regulation) (primary rat hepatocytes): downregulation

- dose dependant upregulation of HMG-CoA reductase mRNA (SGBS adipocytes; [1]): ~3 fold up
- expression level of mevalonate (diphospho) decarboxylase (direction of regulation) (SGBS adipocytes): upregulated
- HMG-CoA reductase (HMGCR) gene upregulation (human SGBS adipocytes): 2.3 fold
- mevalonate (diphospho) decarboxylase (MVD) gene upregulation (human SGBS adipocytes): 2.1 fold
Substance: human insulin
- expression level of HMG-CoA synthase 1 (direction of regulation) (SGBS adipocytes): upregulated
- HMG-CoA synthase 1 (HMGCS1) gene upregulation (human SGBS adipocytes): 2.0 fold
- effect on HMGCR mRNA level (primary rat hepatocytes): clear upregulating effect
- effect on HMGCS1 mRNA level (primary rat hepatocytes): clear upregulating effect
- effect on MVD mRNA level (primary rat hepatocytes): clear upregulating effect
- mRNA expression of fatty acid synthase (direction of regulation) (primary rat hepatocytes): upregulation
- mRNA expression of glucose-6-phosphate catalytic subunit (direction of regulation) (primary rat hepatocytes): downregulation
